In patent US8575188B2 (priority 2009, dated 2013):
pIC50: −log10 of the molar value. Read-outs that look alike come from different tables or passages of the source.

Columns and labels:
[1] = system: human ovarian cancer cell line IGROV-1; test: Antiproliferation assay, 72 hrs under air, Alamar Blue; format: cell-based; conditions: Homo sapiens, IGROV-1
[2] = Bone marrow progenitor cell clonogenic assay (CFU-GM), human; conditions: human
Procedure: (§1) A clonogenic assay was performed using bone marrow progenitor cells derived from the blood of mice and humans.

[3] = system: bone marrow progenitor cells; test: as above; conditions: Homo sapiens, CFU-GM, read-out: Human CFU-GM (IC50 nM) THLD
Procedure: as §1

[4] = system: human melanoma cell line SKMEL-28; test: Antiproliferation assay, 72 hrs under air, Alamar Blue; format: cell-based; conditions: Homo sapiens, SK-MEL-28
[5] = system: mouse melanoma cell line B-16-F10; test: as above; format: cell-based; conditions: B16-F10
[6] = system: human non small cell lung cancer cell line H460; test: Antiproliferation (cytotoxicity) assay, 72 hrs under air, Alamar Blue; format: cell-based; conditions: Homo sapiens, NCI-H460; H460, inhibition of proliferation, 72 hrs under air; read-out: IC50
[7] = In vivo pharmacokinetics, oral gavage; conditions: CD, mouse, in vivo, po; for AUC / Cmax: 50 mg/kg
Procedure: The data normalized to a 50 mg/kg dose are shown below (compounds were dosed at either 25 or 50 mg/kg).

[8] = system: human prostate cancer cell line DU145; test: Antiproliferation assay, 72 hrs under air, Alamar Blue; format: cell-based; conditions: Homo sapiens, DU-145
[9] = system: human melanoma cell line A375; test: as above; format: cell-based; conditions: Homo sapiens, A-375
[10] = system: human melanoma cell line MAMLE-3M; test: as above; format: cell-based; conditions: Homo sapiens
[11] = system: Messa ovarian carcinoma cell line; test: Efflux pump drug resistance, antiproliferation assay, parent line; format: cell-based; conditions: air
Procedure: […] Cells were treated with test compounds at various concentrations under air for 72 hrs, and then cell viability and proliferation were assessed by Alamar Blue staining.
(§2) Cellular drug resistance was determined using the antiproliferation assay described above.

[12] = system: human colon cancer cell line HT-29; test: Antiproliferation assay, 72 hrs under air, Alamar Blue; format: cell-based; conditions: Homo sapiens, HT-29, read-out: HT29 IC50
pcDNA = test: Efflux pump drug resistance, antiproliferation assay, parent line; format: cell-based; conditions: air
Procedure: (§3) The compounds were screened for cytotoxicity using human non small cell lung cancer cell line H460. […]
as §2

[13] = system: H69 small cell lung cancer line; test: as above; format: cell-based; conditions: air
Procedure: as §3, §2

[14] = system: human melanoma cell line SKMEL2; test: Antiproliferation assay, 72 hrs under air, Alamar Blue; format: cell-based; conditions: Homo sapiens, SK-MEL-2, read-out: SKMEL-2 IC50
human colon cancer HT-29 = test: Xenograft model, subcutaneous, tumor growth inhibition and body weight loss; conditions: for TGI (%): HT29, PO, QD × 5/wk, 2 weeks; for Max. BWL (%): mouse, in vivo, po
Procedure: (§4) The first three models were produced by subcutaneous implantation of the appropriate number of cells into the flank of the animals. When tumor size was approximately 150 mm^3, animals were randomized into groups of 10 mice each for dosing. One arm was dosed with only vehicle and the results used for the efficacy calculations. […] TGI=(1−T/C) %. T/C ratio was calculated as T/C=(Tn−Ti)/(Cn−Ci), where Tn is tumor volume in treatment group on Day n, and Ti is the initial tumor volume in the treatment group. Cn is the tumor volume of the vehicle group on the last day of measurement. Ci is the initial tumor volume in the vehicle control group. Day n is the last measurement taken when all the animals in the vehicle group were not yet euthanized. Animals were euthanized when tumor volumes grew larger than 2000 mm^3.

[15] = system: human non small cell lung cancer H-460; test: as above
Procedure: as §4

[16] = Bone marrow progenitor cell clonogenic assay (CFU-GM), mouse; conditions: mouse
Procedure: as §1

[17] = system: bone marrow progenitor cells; test: as above; conditions: Mus musculus, CFU-GM, read-out: Mouse CFU-GM (IC50 nM) THLD
Procedure: as §1

[18] = system: MRP1 over expressing H69AR line; test: Efflux pump drug resistance, antiproliferation assay, MRP1 over expressing line; format: cell-based; conditions: Homo sapiens, air
Procedure: as §3, §2

[19] = system: human prostate cancer cell line PC-3; test: Antiproliferation assay, 72 hrs under air, Alamar Blue; format: cell-based; conditions: Homo sapiens, read-out: PC3 IC50
[20] = system: BCRP, which over expressed the breast cancer resistance protein; test: Efflux pump drug resistance, antiproliferation assay, BCRP over expressing line
Procedure: as §3, §2

[21] = system: IGROV1 human ovarian cancer cells; test: Xenograft model of metastatic ovarian cancer (i.p.), survival; conditions: IGROV1 i.p., median survival treated / vehicle times 100; PO, QD × 5/wk, 4 weeks, 20 mg/Kg
Procedure: One arm was dosed with only vehicle and the results used for the efficacy calculations. […] A xenograft model of metastatic ovarian cancer was set up by the intraperitoneal (i.p) injection of 3×10^6 IGROV1 human ovarian cancer cells in nude mice. Mice were evaluated twice a week for morbidity and mortality. Kaplan-Meier survival curves were plotted.

[22] = system: human prostate cancer cell line LNCap; test: Antiproliferation assay, 72 hrs under air, Alamar Blue; format: cell-based; conditions: Homo sapiens, LNCaP
[23] = system: DX5, which over expresses the MDR 1 efflux pump; test: Efflux pump drug resistance, antiproliferation assay, MDR 1 over expressing line; format: cell-based; conditions: air
Procedure: as §3, §2

[24] = Brain penetration, AUC in brain versus AUC plasma; conditions: mouse
Procedure: Certain compounds of the invention were assessed for brain penetration by comparing the AUC for plasma exposure versus the AUC in brain.

H46O cells = test: Selective hypoxic activation of 14-nitro prodrugs in cell culture; format: cell-based, human; conditions: TH1431 at 1 micromolar, 24 hr
Procedure: H46O cells were grown to a confluent monolayer and then the 14-nitro TH1332 prodrug was added to the media at 5 micromolar concentration. Incubations were done for 24 hour either under air or nitrogen (hypoxia), media and cells were recovered, sonicated and soluble extracts were isolated by acetonitrile precipitation of proteins. The level of amino TH1338 active cytotoxin were quantitated by liquid chromotagraphy mass spectra analysis. The equivalent of 70 nanomolar TH1338 was produced under hypoxia with undetectable levels being produced under air (less than 5 nanomolar).
The analogous experiment was preformed using 1 micromolar concentration of the 14-nitro derivative TH1431. After 24 hr, 180 nanomolar of the 14 amino TH1499 was produced under nitrogen with undetectable levels produced under air (less than 5 nanomolar).

[25] = Homo sapiens, MES-SA, 72 h, 3 days, read-out: Air 3d MESSA prol. IC50
[26] = 72 h, 3 days, read-out: Air 3d pcDNA prol. IC50
[27] = 72 h, 3 days, read-out: Air 3d H69 prol. IC50
[28] = 72 h, 3 days, read-out: Air 3d H69ar (MRP1) prol. IC50

CC[C@@]1(O)C(=O)OCc2c1c(N)c1n(c2=O)Cc2cc3ccccc3nc2-1 [TH1320]
pIC50 [1]: 6.92
IC90 [2]: 1100 nM
IC50 [3]: 130 nM
pIC50 [4]: 5.52
pIC50 [5]: 6.02
pIC50 [6]: 7.74
half-life [7]: 1.98 h
AUC [7]: 1620 ng·h/mL
Cmax [7]: 547 ng/mL
pIC50 [8]: 7.30
pIC50 [9]: 7.66
pIC50 [10]: 6.11
pIC50 [11, 25]: 7.24
pIC50 [12]: 6.64
pIC50 (pcDNA; [26]): 8.13
pIC50 [13, 27]: 7.04
pIC50 [14]: 6.77
TGI (%) (human colon cancer HT-29; 30 mg/Kg): 44.3%
Max. BWL (%) (human colon cancer HT-29; 30 mg/kg): 3%
TGI (%) ([15]; H460, PO, QD × 5/wk, 2 weeks, 30 mg/Kg): 79.2%
Max. BWL (%) ([15]; mouse, in vivo, po, 30 mg/kg): 3.8%
IC90 [16]: 4800 nM
IC50 [17]: 710 nM
pIC50 [18, 28]: 7.04
pIC50 [19]: 7.37
IC50 ([20]; 72 h, read-out: Air 3d BCRP prol. IC50 nM, air, 3 days): 14 nM
3d BCRP/pcDNA ([20]; ratio of IC50s, BCRP over expressing versus parent line, 3 days): 1.8919
T/C [21]: 204
pIC50 [22]: 6.96
pIC50 ([23]; MDR1, 72 h, 3 days, read-out: Air 3d DX5 prol. IC50): 7.22
Kp [24]: 1.15

CC[C@@]1(O)C(=O)OCc2c1c([N+](=O)[O-])c1n(c2=O)Cc2c-1nc1ccccc1c2/C=N/OC(C)(C)C [TH1431]
pIC50 [5]: 6.14
pIC50 [6]: 6.10
AUC [7]: 352 ng·h/mL
Cmax [7]: 348 ng/mL
TH1499 produced under air (H46O cells; air, undetectable levels): less than 5 nanomolar
14 amino TH1499 produced under nitrogen (H46O cells; nitrogen): 180 nM
pIC50 [11, 25]: 5.57
pIC50 ([11]; Homo sapiens, MES-SA, 120 h, 5 days, read-out: Air 5d MESSA prol. IC50): 6.59
pIC50 ([11]; 3 days, read-out: Air 3d MESSA prol. IC50): 5.48
pIC50 [12]: 6.54
pIC50 (pcDNA; [26]): 6.34
pIC50 (pcDNA; 120 h, 5 days, read-out: Air 5d pcDNA prol. IC50): 7.17
pIC50 (pcDNA; 3 days, read-out: Air 3d pcDNA prol. IC50): 6.05
pIC50 [13, 27]: 5.42
pIC50 ([13]; 120 h, 5 days, read-out: Air 5d H69 prol. IC50): 6.45
TGI (%) (human colon cancer HT-29; 25 mg/Kg): 34.6%
Max. BWL (%) (human colon cancer HT-29; 25 mg/kg): 1.6%
pIC50 [18, 28]: < 5.00
pIC50 ([18]; 120 h, 5 days, read-out: Air 5d H69ar (MRP1) prol. IC50): 6.08
pIC50 [19]: 7.54
IC50 ([20]; 120 h, read-out: Air 5d BCRP prol. IC50 nM, air, 5 days): 78 nM
5d BCRP/pcDNA ([20]; ratio of IC50s, BCRP over expressing versus parent line, 5 days): 1.1642
pIC50 ([23]; MDR1, 120 h, 5 days, read-out: Air 5d DX5 prol. IC50): 6.29
Kp [24]: 0.12
